Measurements taken from patent US20080200337A1, “Mixed herbicide compositions for paddy field” (Bayer CropScience, priority 2007, published 2008).

Tests used:
Format in all cases: in vivo
transplanted rice [1] = assay: Phytotoxicity, flooded paddy field, treatment at 3 leaf-stage (Test Example 2); conditions: treatment at 3 leaf-stage, after 4 weeks
Experimental: (§1) Carrier: 5 parts by weight of acetone
(§2) Surfactant: one part by weight of benzyloxy polyglycol ether.
(§3) Above described carrier and surfactant are mixed with one part by weight of the active compound ((a) ingredient and (b) ingredient) and the resulting preparation is then diluted with water to obtain given amount of the test drug (the formulation).
(§4) In a greenhouse, seeds or tubers of Echinochloa, Cyperus difformis L., Scirpus juncoides Roxburgh, Monochoria vaginalis Presl, annual broad-leaved weeds (Lindernia procumbens Philcox, Lindernia dubia L. Penn., Rotala indica Koehne, Elatine triandra Schk, Ammannia multiflora Roxb.), Cyperus serotinus Rottboel and Sagittaria pygmaea Miq. were inoculated in a 500 cm^2 pot filled with paddy field soil. After 2 leaf-stage of rice were transplanted, water was poured to a depth of about 3 cm. At 3.0 leaf-stage of Echinochloa, a prescribed, diluted solution of the formulation of each active compound and each herbicidal compound in the table was separately or simultaneously applied to the surface of water. After the treatment, the water depth of 3 cm was maintained, and herbicidal effect was examined after 4 weeks. In the assessment of the herbicidal effect and the phytotoxicity, 100% refers to complete death and 0% refers to no effect or no phytotoxicity.

Cyperus iria L. = assay: Weed control by spray treatment at 1.5 to 3.0 leaf-stage (Test Example 3); conditions: spray at 1.5 to 3.0 leaf-stage, 4 weeks later
Experimental: as §1, §2, §3
(§5) In a greenhouse, seeds of rice (var.: Nipponbare and RD23) and weeds (Echinochloa oryzicola Vasing, Echinochloa cruss-galli, Leptochloa chinensis, Cyperus difformis L., Cyperus iria L., annual broad-leaved weeds (Monochoria vaginalis Presl, Lindernia procumbens Philcox, Lindernia dubia L. Penn., Rotala indica Koehne, Elatine triandra Schk, Ammannia multiflora Roxb. and the like)) were sown in a 500 cm^2 pot filled with paddy field soil and covered with soil. Water was added to the pot (a depth of 0 cm) to be a wet condition, and each test plant was grown in the greenhouse to 1.5 to 3.0 leaf-stage, after then a prescribed, diluted solution of the formulation of each active compound and each herbicidal compound in the table were separately or simultaneously sprayed over the pots with plants. At 3 days after the treatment, the water depth of 3 cm was maintained, and 4 weeks later, herbicidal effect was then examined. In the assessment of the herbicidal effect and the phytotoxicity, 100% refers to complete death and 0% refers to no effect or no phytotoxicity.

[2] = system: annual broad-leaved weeds; assay: as above; conditions: spray at 1.5 to 3.0 leaf-stage, 4 weeks later
Experimental: as §1, §2, §3, §5

Cyperus difformis L. = assay: as above; conditions: spray at 1.5 to 3.0 leaf-stage, 4 weeks later
Experimental: as §1, §2, §3, §5

[3] = system: Monochoria vaginalis Presl; assay: as above; conditions: spray at 1.5 to 3.0 leaf-stage, 4 weeks later
Experimental: as §1, §2, §3, §5

Echinochloa cruss-galli = assay: as above; conditions: spray at 1.5 to 3.0 leaf-stage, 4 weeks later
Experimental: as §1, §2, §3, §5

[4] = system: Echinochloa oryzicola Vasing; assay: as above; conditions: spray at 1.5 to 3.0 leaf-stage, 4 weeks later
Experimental: as §1, §2, §3, §5

Leptochloa chinensis = assay: as above; conditions: spray at 1.5 to 3.0 leaf-stage, 4 weeks later
Experimental: as §1, §2, §3, §5

transplanted rice [5] = assay: Phytotoxicity, flooded paddy field, treatment at 1 leaf-stage (Test Example 1); conditions: treatment at 1 leaf-stage, after 4 weeks
Experimental: as §1, §2, §3
as §4, with “Echinochloa,” for “Echinochloa, Cyperus difformis L.,”, “1.0” for “3.0”, “Echinochloa oryzicola Vasing,” for “Echinochloa,”

[6] = system: submerged direct sown paddy (RD-23); assay: Phytotoxicity, spray treatment at 1.5 to 3.0 leaf-stage (Test Example 3); conditions: spray at 1.5 to 3.0 leaf-stage, 4 weeks later, RD-23
Experimental: as §1, §2, §3, §5

[7] = system: submerged direct sown paddy (Nipponbare); assay: as above; conditions: spray at 1.5 to 3.0 leaf-stage, 4 weeks later
Experimental: as §1, §2, §3, §5

Echinochloa [8] = assay: Weed control, flooded paddy field, treatment at 1 leaf-stage (Test Example 1); conditions: after 4 weeks
Experimental: as §1, §2, §3
as §4, with “Echinochloa,” for “Echinochloa, Cyperus difformis L.,”, “1.0” for “3.0”, “Echinochloa oryzicola Vasing,” for “Echinochloa,”

[9] = system: Cyperus serotinus Rottboel; assay: as above; conditions: after 4 weeks
Experimental: as §1, §2, §3
as §4, with “Echinochloa,” for “Echinochloa, Cyperus difformis L.,”, “1.0” for “3.0”, “Echinochloa oryzicola Vasing,” for “Echinochloa,”

[10] = system: annual broad-leaved weeds; assay: as above; conditions: after 4 weeks
Experimental: as §1, §2, §3
as §4, with “Echinochloa,” for “Echinochloa, Cyperus difformis L.,”, “1.0” for “3.0”, “Echinochloa oryzicola Vasing,” for “Echinochloa,”

[11] = system: Scirpus juncoides Roxburgh; assay: as above; conditions: after 4 weeks
Experimental: as §1, §2, §3
as §4, with “Echinochloa,” for “Echinochloa, Cyperus difformis L.,”, “1.0” for “3.0”, “Echinochloa oryzicola Vasing,” for “Echinochloa,”

[12] = system: Monochoria vaginalis Presl; assay: as above; conditions: after 4 weeks
Experimental: as §1, §2, §3
as §4, with “Echinochloa,” for “Echinochloa, Cyperus difformis L.,”, “1.0” for “3.0”, “Echinochloa oryzicola Vasing,” for “Echinochloa,”

Sagittaria pygmaea Miq. [13] = assay: as above; conditions: after 4 weeks
Experimental: as §1, §2, §3
as §4, with “Echinochloa,” for “Echinochloa, Cyperus difformis L.,”, “1.0” for “3.0”, “Echinochloa oryzicola Vasing,” for “Echinochloa,”

Echinochloa [14] = assay: Weed control, flooded paddy field, treatment at 3 leaf-stage (Test Example 2); conditions: after 4 weeks
Experimental: as §1, §2, §3, §4

[15] = system: Cyperus serotinus Rottboel; assay: as above; conditions: after 4 weeks
Experimental: as §1, §2, §3, §4

[16] = system: annual broad-leaved weeds; assay: as above; conditions: after 4 weeks
Experimental: as §1, §2, §3, §4

[17] = system: Scirpus juncoides Roxburgh; assay: as above; conditions: after 4 weeks
Experimental: as §1, §2, §3, §4

[18] = system: Monochoria vaginalis Presl; assay: as above; conditions: after 4 weeks
Experimental: as §1, §2, §3, §4

Sagittaria pygmaea Miq. [19] = assay: as above; conditions: after 4 weeks
Experimental: as §1, §2, §3, §4

## COc1nc(OC)nc(C(=O)c2cccc(F)c2N(C)S(=O)(=O)C(F)F)n1 [(a-1)]
Transplanted rice [1]; 30 g ai/ha
  Phytotoxicity (%) ORYSP: 0%
Transplanted rice [1]; 50 g ai/ha
  Phytotoxicity (%) ORYSP: 0%
Cyperus iria L.; 30 g ai/ha
  Herbicidal effect (%) CYPIR: 100%
Cyperus iria L.; 50 g ai/ha
  Herbicidal effect (%) CYPIR: 100%
[2]; 30 g ai/ha
  Herbicidal effect (%) BBBBB: 70%
[2]; 50 g ai/ha
  Herbicidal effect (%) BBBBB: 70%
Cyperus difformis L.; 30 g ai/ha
  Herbicidal effect (%) CYPDI: 100%
Cyperus difformis L.; 50 g ai/ha
  Herbicidal effect (%) CYPDI: 100%
[3]; 30 g ai/ha
  Herbicidal effect (%) MOOVP: 85%
[3]; 50 g ai/ha
  Herbicidal effect (%) MOOVP: 85%
Echinochloa cruss-galli; 30 g ai/ha
  Herbicidal effect (%) ECHCG: 100%
Echinochloa cruss-galli; 50 g ai/ha
  Herbicidal effect (%) ECHCG: 100%
[4]; 30 g ai/ha
  Herbicidal effect (%) ECHOR: 100%
[4]; 50 g ai/ha
  Herbicidal effect (%) ECHOR: 100%
Leptochloa chinensis; 30 g ai/ha
  Herbicidal effect (%) LEFCH: 75%
Leptochloa chinensis; 50 g ai/ha
  Herbicidal effect (%) LEFCH: 90%
Transplanted rice [5]; 30 g ai/ha
  Phytotoxicity (%) ORYSP: 0%
Transplanted rice [5]; 50 g ai/ha
  Phytotoxicity (%) ORYSP: 0%
[6]; 30 g ai/ha
  Phytotoxicity (%) ORYSW*^2: 5%
[6]; 50 g ai/ha
  Phytotoxicity (%) ORYSW*^2: 10%
[7]; 30 g ai/ha
  Phytotoxicity (%) ORYSW*^1: 5%
[7]; 50 g ai/ha
  Phytotoxicity (%) ORYSW*^1: 10%
Echinochloa [8]; 30 g ai/ha
  Herbicidal effect (%) ECHSS: 93%
Echinochloa [8]; 50 g ai/ha
  Herbicidal effect (%) ECHSS: 95%
[9]; 30 g ai/ha
  Herbicidal effect (%) CYPSEE: 90%
[9]; 50 g ai/ha
  Herbicidal effect (%) CYPSEE: 93%
[10]; 30 g ai/ha
  Herbicidal effect (%) BBBBB: 25%
[10]; 50 g ai/ha
  Herbicidal effect (%) BBBBB: 45%
[11]; 30 g ai/ha
  Herbicidal effect (%) SCPSS: 85%
[11]; 50 g ai/ha
  Herbicidal effect (%) SCPSS: 87%
[12]; 30 g ai/ha
  Herbicidal effect (%) MOOVP: 25%
[12]; 50 g ai/ha
  Herbicidal effect (%) MOOVP: 47%
Sagittaria pygmaea Miq. [13]; 30 g ai/ha
  Herbicidal effect (%) SAGPY: 70%
Sagittaria pygmaea Miq. [13]; 50 g ai/ha
  Herbicidal effect (%) SAGPY: 90%
Echinochloa [14]; 30 g ai/ha
  Herbicidal effect (%) ECHSS: 90%
Echinochloa [14]; 50 g ai/ha
  Herbicidal effect (%) ECHSS: 90%
[15]; 30 g ai/ha
  Herbicidal effect (%) CYPSEE: 90%
[15]; 50 g ai/ha
  Herbicidal effect (%) CYPSEE: 90%
[16]; 30 g ai/ha
  Herbicidal effect (%) BBBBB: 21%
[16]; 50 g ai/ha
  Herbicidal effect (%) BBBBB: 30%
[17]; 30 g ai/ha
  Herbicidal effect (%) SCPSS: 80%
[17]; 50 g ai/ha
  Herbicidal effect (%) SCPSS: 83%
[18]; 30 g ai/ha
  Herbicidal effect (%) MOOVP: 20%
[18]; 50 g ai/ha
  Herbicidal effect (%) MOOVP: 45%
Sagittaria pygmaea Miq. [19]; 30 g ai/ha
  Herbicidal effect (%) SAGPY: 70%
Sagittaria pygmaea Miq. [19]; 50 g ai/ha
  Herbicidal effect (%) SAGPY: 73%
